Source: ChEMBL document CHEMBL4020751, “Synthesis and in vitro biological evaluation of novel coumarin derivatives containing isoxazole moieties on melanin synthesis in B16 cells and inhibition on bacteria” (Bioorg Med Chem Lett, 2017)

What was measured:
[1] = tested on: Candida albicans; assay: Antifungal activity against Candida albicans ATCC 10231 assessed as diameter of inhibition zone after 24 hrs by agar well diffusion method; assay type: functional
[2] = tested on: Staphylococcus aureus; assay: Antibacterial activity against Staphylococcus aureus ATCC 6538 assessed as diameter of inhibition zone after 24 hrs by agar well diffusion method; assay type: functional
[3] = tested on: Escherichia coli; assay: Antibacterial activity against Escherichia coli ATCC 11229 assessed as diameter of inhibition zone after 24 hrs by agar well diffusion method; assay type: functional
[4] = tested on: B16; assay: Induction of melanin synthesis in mouse B16 cells assessed as increase in melanin content at 50 uM after 48 hrs measured by spectrophotometric method relative to control; assay type: functional
[5] = tested on: B16; assay: Cytotoxicity against mouse B16 cells at 50 uM after 24 hrs by CCK8 assay; assay type: cell-based; conditions: b16, 24 h
[6] = tested on: B16; assay: Potency index, ratio of compound activity to 8-MOP activity for induction of melanin synthesis in mouse B16 cells; assay type: functional

Structure (SMILES) | diameter of the inhibition zone (DIZ) [1] | diameter of the inhibition zone (DIZ) [2] | diameter of the inhibition zone (DIZ) [3] | Activity [4] | Activity [5] | Ratio [6]
C[C@@H]1[C@H](O)[C@@H](C)/C=C/C=C/C=C/C=C/C=C/C=C/C=C/[C@H](O[C@@H]2O[C@H](C)[C@@H](O)[C@H](N)[C@@H]2O)C[C@@H]2O[C@](O)(C[C@@H](O)C[C@@H](O)[C@H](O)CC[C@@H](O)C[C@@H](O)CC(=O)O[C@H]1C)C[C@H](O)[C@H]2C(=O)O [AMPHOTERICIN B] | 11 mm | <=7 mm | <=7 mm |  |  | 
Cc1cc(=O)oc2cc(OCc3cc(-c4ccc5c(c4)OCCO5)no3)ccc12 | <=7 mm | <=7 mm | <=7 mm | 178.33% |  | 
CC1(C)S[C@@H]2[C@H](NC(=O)[C@H](N)c3ccccc3)C(=O)N2[C@H]1C(=O)O [AMPICILLIN] | <=7 mm | 19 mm |  |  |  | 
Cc1cc(=O)oc2cc(OCc3cc(-c4cccc(F)c4)no3)ccc12 | 7 mm | <=7 mm | <=7 mm | 121.15% |  | 
Cc1cc(=O)oc2cc(OCc3cc(-c4cccc(OC(F)(F)F)c4)no3)ccc12 | <=7 mm | <=7 mm | <=7 mm | 203.27% | Toxic | 
Cc1cc(=O)oc2cc(OCc3cc(-c4cc(I)ccc4F)no3)ccc12 | <=7 mm | <=7 mm | <=7 mm | 169.71% |  | 
COc1c2occc2cc2ccc(=O)oc12 [METHOXSALEN] | <=7 mm | <=7 mm | <=7 mm | 149.39% |  | 
Cc1cc(=O)oc2cc(OCc3cc(-c4ccc(F)c(F)c4)no3)ccc12 | 10 mm | <=7 mm | <=7 mm | 156.64% |  | 
Cc1cc(=O)oc2cc(OCc3cc(-c4cccc(Cl)c4)no3)ccc12 | 7 mm | <=7 mm | <=7 mm | 242.18% | Toxic | 1.6
Cc1cc(=O)oc2cc(O)ccc12 [HYMECROMONE] | 7 mm | <=7 mm | <=7 mm | 112.2% |  | 
Cc1cc(=O)oc2cc(OCc3cc(-c4cc(Cl)cc(Cl)c4)no3)ccc12 | 10 mm | <=7 mm | <=7 mm | 389.95% | Toxic | 2.6
Cc1cc(=O)oc2cc(OCc3cc(-c4ccccc4)no3)ccc12 | <=7 mm | <=7 mm | <=7 mm | 153.35% |  | 
Cc1cc(=O)oc2cc(OCc3cc(-c4ccc(F)cc4)no3)ccc12 | <=7 mm | <=7 mm | <=7 mm | 115.44% |  | 
Cc1cc(=O)oc2cc(OCc3cc(-c4ccc(Cl)cc4)no3)ccc12 | <=7 mm | <=7 mm | <=7 mm | 191.96% |  | 
Cc1cc(=O)oc2cc(OCc3cc(-c4ccc(Cl)c(Cl)c4)no3)ccc12 | 10 mm | <=7 mm | <=7 mm | 204.12% | Toxic | 
COc1ccccc1-c1cc(COc2ccc3c(C)cc(=O)oc3c2)on1 | <=7 mm | <=7 mm | <=7 mm | 145.05% |  | 
Cc1cc(=O)oc2cc(OCc3cc(-c4ccc(Cl)c(F)c4)no3)ccc12 | 7 mm | <=7 mm | <=7 mm | 182.27% |  | 
Cc1cc(=O)oc2cc(OCc3cc(-c4cc(F)cc(F)c4)no3)ccc12 | 10 mm | <=7 mm | <=7 mm | 176.55% |  | 
COc1ccc(-c2cc(COc3ccc4c(C)cc(=O)oc4c3)on2)cc1 | <=7 mm | <=7 mm | <=7 mm | 129.45% |  | 
